According to patent publication US20210032257A1, “(E)-1-(4-(DIMETHYLAMINO)BUT-2-ENOYL)PYRROLIDIN-3-YL 4-((3-ISOPROPYL-5-METHYLPYRAZOLO[1,5-A]PYRIMIDIN-7-YL)AMINO)PIPERIDINE-1-CARBOXYLATE FOR INHIBITING CDK7” (Eli Lilly and Company, priority 2017, published 2021):

Experiments:
Test in all cases: Biomarker study proliferation (CellTiter-Glo)
Type in all cases: cell-based
C33A = tested on: C33A
Protocol: (§1) Cancer cell lines are profiled to evaluate the anti-proliferative activity of a test compound in-vitro. Mutation, copy number and gene expression information of ARID1A, KMT2C, KMT2D and/or RB1 genes across cancer cell lines is obtained from COSMIC database (cancer.sanger.ac.uk) and cBioportal (http://www.cbioportal.org/). Cells are cultured in growth medium and plated into a 96-well plate in 100 μL/well growth medium at 5000 cells/well then incubated at 37° C., 5% CO2 overnight. Cells are cultured using supplier recommended media and conditions well known in the art, for example with RPMI 1640 with or without HEPES & L-Glutamine (Thermo SH30255.01) and 1 mM Sodium Pyruvate, and 10% FBS(Gibco cat #10082). The 1000× intermediate dilution plate is prepared by making a 10 mM working solution of a test sample in DMSO and performing 1:3 dilutions in DMSO for 10 points. The 10× dosing plate is prepared by adding 2 μL from the 1000× intermediate dilution plate to 198 μL of OPTIMEM®+10% FBS and mixing well. The cell plate is then treated by adding 11 μL from the 10× dosing plate into the 100 μL/well cell plate for a 1× final concentration. Staurosporine is used as a maximum growth inhibition control at a final concentration of 5 μM. The cell plate is incubated for 7 days at 37° C., 5% CO2. Seven days after treatment, Cell Titer-Glo® (Promega cat #G7571) assay buffer and substrate are removed from −20° C. and allowed to equilibrate to RT. Assay buffer is added to the substrate and swirled gently to mix. The CELL TITER-GLO® reagent (100 μL/well) is added to the cell plate and incubated at RT for 15 minutes. After 15 minutes, luminescence is read using a plate reader. Data is analyzed in Excel and graphed in GraphPad Prism. Statistical analysis and p value is calculated using Mann-Whitney nonparameteric t tests using GraphPad Prism.
(§2) Anti-proliferative effects of a test compound are categorized as insensitive (IC50≥1 μM), cytostatic (IC50<1 μM and % inhibition <70%) or cytotoxic (IC50<1 μM and % inhibition ≥70%).

CACO2 = tested on: CACO2
Protocol: as §1, §2

COLO320 = tested on: COLO320
Protocol: as §1, §2

HCC1143 = tested on: HCC1143
Protocol: as §1, §2

HUH1 = tested on: HUH1
Protocol: as §1, §2

KP4 = tested on: KP4
Protocol: as §1, §2

Karpas1106 = tested on: Karpas1106
Protocol: as §1, §2

MDST8 = tested on: MDST8
Protocol: as §1, §2

MKN45 = tested on: MKN45
Protocol: as §1, §2

NCIH1734 = tested on: NCIH1734
Protocol: as §1, §2

NCIH226 = tested on: NCIH226
Protocol: as §1, §2

NCIH446 = tested on: NCIH446
Protocol: as §1, §2

NCIH727 = tested on: NCIH727
Protocol: as §1, §2

OV90 = tested on: OV90
Protocol: as §1, §2

OVCAR8 = tested on: OVCAR8
Protocol: as §1, §2

PANC1 = tested on: PANC1
Protocol: as §1, §2

SKOV3 = tested on: SKOV3
Protocol: as §1, §2

SNU475 = tested on: SNU475
Protocol: as §1, §2

Structure (SMILES): Cc1cc(NC2CCN(C(=O)O[C@H]3CCN(C(=O)/C=C/CN(C)C)C3)CC2)n2ncc(C(C)C)c2n1 [Example 1, [(3S)-1-[(E)-4-(dimethylamino)but-2-enoyl]pyrrolidin-3-yl] 4-[(3-isopropyl-5-methyl-pyrazolo[1,5-a]pyrimidin-7-yl)amino]piperidine-1-carboxylate]
- Anti-proliferation effect % Inh. (C33A; C33A, CERVIX, 7 days): 79%
- Anti-proliferation effect Outcome (C33A; C33A, ENDOMETRIUM, 7 days): Cytotoxic (cytotoxic (IC50<1 μM and % inhibition ≥70%))
- IC50 (C33A; Homo sapiens, C-33-A, 168 h, read-out: Anti-proliferation effect IC50): 14 nM
- Anti-proliferation effect % Inh. (CACO2; CACO2, INTESTINE, 7 days): 60%
- Anti-proliferation effect Outcome (CACO2; CACO2, INTESTINE, 7 days): Cytostatic (cytostatic (IC50<1 μM and % inhibition <70%))
- IC50 (CACO2; Homo sapiens, Caco-2, 168 h, read-out: Anti-proliferation effect IC50): 189 nM
- Anti-proliferation effect % Inh. (COLO320; COLO320, INTESTINE, 7 days): 73%
- Anti-proliferation effect Outcome (COLO320; COLO320, INTESTINE, 7 days): Cytotoxic (cytotoxic (IC50<1 μM and % inhibition ≥70%))
- IC50 (COLO320; Homo sapiens, COLO 320, 168 h, read-out: Anti-proliferation effect IC50): 189 nM
- Anti-proliferation effect % Inh. (HCC1143; HCC1143, BREAST, 7 days): 37%
- Anti-proliferation effect Outcome (HCC1143; HCC1143, BREAST, 7 days): Insensitive (insensitive (IC50≥1 μM))
- IC50 (HCC1143; Homo sapiens, HCC1143, 168 h, read-out: Anti-proliferation effect IC50): > 10000 nM
- Anti-proliferation effect % Inh. (HUH1; HUH1, LIVER, 7 days): 72%
- Anti-proliferation effect Outcome (HUH1; HUH1, LIVER, 7 days): Cytotoxic (cytotoxic (IC50<1 μM and % inhibition ≥70%))
- IC50 (HUH1; Homo sapiens, HuH-1, 168 h, read-out: Anti-proliferation effect IC50): 128 nM
- IC50 (KP4; Homo sapiens, KP-4, 168 h, read-out: Anti-proliferation effect IC50): 36 nM
- Anti-proliferation effect % Inh. (KP4; KP4, PANCREAS, 7 days): 65%
- Anti-proliferation effect Outcome (KP4; KP4, PANCREAS, 7 days): Cytostatic (cytostatic (IC50<1 μM and % inhibition <70%))
- IC50 (Karpas1106; 168 h, read-out: Anti-proliferation effect IC50): 26 nM
- Anti-proliferation effect % Inh. (Karpas1106; Karpas1106, BLOOD, 7 days): 98%
- Anti-proliferation effect Outcome (Karpas1106; Karpas1106, BLOOD, 7 days): Cytotoxic (cytotoxic (IC50<1 μM and % inhibition ≥70%))
- IC50 (MDST8; MDST8, 168 h, read-out: Anti-proliferation effect IC50): 49 nM
- Anti-proliferation effect % Inh. (MDST8; MDST8, INTESTINE, 7 days): 88%
- Anti-proliferation effect Outcome (MDST8; MDST8, INTESTINE, 7 days): Cytotoxic (cytotoxic (IC50<1 μM and % inhibition ≥70%))
- IC50 (MKN45; Homo sapiens, MKN-45, 168 h, read-out: Anti-proliferation effect IC50): 56 nM
- Anti-proliferation effect % Inh. (MKN45; MKN45, STOMACH, 7 days): 79%
- Anti-proliferation effect Outcome (MKN45; MKN45, STOMACH, 7 days): Cytotoxic (cytotoxic (IC50<1 μM and % inhibition ≥70%))
- IC50 (NCIH1734; Homo sapiens, NCI-H1734, 168 h, read-out: Anti-proliferation effect IC50): 24 nM
- Anti-proliferation effect % Inh. (NCIH1734; NCIH1734, LUNG, 7 days): 76%
- Anti-proliferation effect Outcome (NCIH1734; NCIH1734, LUNG, 7 days): Cytotoxic (cytotoxic (IC50<1 μM and % inhibition ≥70%))
- IC50 (NCIH226; Homo sapiens, NCI-H226, 168 h, read-out: Anti-proliferation effect IC50): 1200 nM
- Anti-proliferation effect % Inh. (NCIH226; NCIH226, LUNG, 7 days): 43%
- Anti-proliferation effect Outcome (NCIH226; NCIH226, LUNG, 7 days): Insensitive (insensitive (IC50≥1 μM))
- IC50 (NCIH446; Homo sapiens, NCI-H446, 168 h, read-out: Anti-proliferation effect IC50): 13 nM
- Anti-proliferation effect % Inh. (NCIH446; NCIH446, LUNG, 7 days): 95%
- Anti-proliferation effect Outcome (NCIH446; NCIH446, LUNG, 7 days): Cytotoxic (cytotoxic (IC50<1 μM and % inhibition ≥70%))
- IC50 (NCIH727; Homo sapiens, NCI-H727, 168 h, read-out: Anti-proliferation effect IC50): 117 nM
- Anti-proliferation effect % Inh. (NCIH727; NCIH727, LUNG, 7 days): 56%
- Anti-proliferation effect Outcome (NCIH727; NCIH727, LUNG, 7 days): Cytostatic (cytostatic (IC50<1 μM and % inhibition <70%))
- IC50 (OV90; Homo sapiens, OV-90, 168 h, read-out: Anti-proliferation effect IC50): 34 nM
- Anti-proliferation effect % Inh. (OV90; OV90, OVARY, 7 days): 61%
- Anti-proliferation effect Outcome (OV90; OV90, OVARY, 7 days): Cytostatic (cytostatic (IC50<1 μM and % inhibition <70%))
- IC50 (OVCAR8; Homo sapiens, OVCAR-8, 168 h, read-out: Anti-proliferation effect IC50): 65 nM
- Anti-proliferation effect % Inh. (OVCAR8; OVCAR8, OVARY, 7 days): 90%
- Anti-proliferation effect Outcome (OVCAR8; OVCAR8, OVARY, 7 days): Cytotoxic (cytotoxic (IC50<1 μM and % inhibition ≥70%))
- IC50 (PANC1; Homo sapiens, PANC-1, 168 h, read-out: Anti-proliferation effect IC50): 71 nM
- Anti-proliferation effect % Inh. (PANC1; PANC1, PANCREAS, 7 days): 47%
- Anti-proliferation effect Outcome (PANC1; PANC1, PANCREAS, 7 days): Cytostatic (cytostatic (IC50<1 μM and % inhibition <70%))
- IC50 (SKOV3; Homo sapiens, SK-OV-3, 168 h, read-out: Anti-proliferation effect IC50): > 10000 nM
- Anti-proliferation effect % Inh. (SKOV3; SKOV3, OVARY, 7 days): 27%
- Anti-proliferation effect Outcome (SKOV3; SKOV3, OVARY, 7 days): Insensitive (insensitive (IC50≥1 μM))
- IC50 (SNU475; Homo sapiens, SNU-475, 168 h, read-out: Anti-proliferation effect IC50): 3920 nM
- Anti-proliferation effect % Inh. (SNU475; SNU475, LIVER, 7 days): 28%
- Anti-proliferation effect Outcome (SNU475; SNU475, LIVER, 7 days): Insensitive (insensitive (IC50≥1 μM))
